Test results reported in article PMC12655351, “Synthesis and Anticancer Activity Evaluation of New 5-((5-Nitrofuran-2-yl)allylidene)-2-thioxo-4-thiazolidinones” (Pharmaceuticals, 2025).
Several values for one entry are separate records, joined by “and”; a condition that tells them apart may be missing. Equal values may be shown once. Read-outs that look alike come from different tables or passages of the source.

Assays:
HCC-2998 = settings: for growth GP: HCC-2998, 10 μM, 48 h
HCT-116 = settings: HCT-116, 48 h
SF-268 [1] = test system: SF-268
SF-539 = settings: for growth GP: SF-539, 10 μM, 48 h
SK-MEL-5 [2] = settings: for CC50: human
UACC-257 = settings: for CC50: human, 48 h
OVCAR-3 = settings: for TGI / GI50: OVCAR-3, 48 h
OVCAR-8 [3] = settings: for TGI / GI50: OVCAR-8, 48 h
T-47D = settings: 48 h
Leukemia [4] = settings: Leukemia subpanel
Melanoma = Melanoma subpanel
CCRF-CEM = experiment: cells; settings: Homo sapiens, 48 h
SF-268 [5] = experiment: cells; settings: Homo sapiens, SF-268, 48 h; for CC50: read-out: LC50, SF-268, 48 h
SK-MEL-5 [6] = experiment: cells; settings: Homo sapiens, SK-MEL-5, 48 h; for CC50: read-out: LC50, SK-MEL-5, 48 h
OVCAR-8 [7] = experiment: cells; settings: Homo sapiens, OVCAR-8, 48 h; for CC50: read-out: LC50, OVCAR-8, 48 h
NCI/ADR-RES = experiment: cells; settings: Homo sapiens, 48 h
SK-OV-3 = experiment: cells; settings: Homo sapiens, SK-OV-3, 48 h; for CC50: read-out: LC50, SK-OV-3, 48 h
UO-31 = experiment: cells; settings: Homo sapiens, UO-31, 48 h; for CC50: read-out: LC50, UO-31, 48 h
DU-145 = experiment: cells; settings: Homo sapiens, DU-145, 48 h; for CC50: read-out: LC50, DU-145, 48 h
Leukemia [8] = experiment: cells; settings: Homo sapiens; for GI50: read-out: MG_MID GI50; for CC50: read-out: MG_MID LC50
[9] = test system: Non-small cell lung cancer; experiment: cells; settings: Homo sapiens; for GI50: read-out: MG_MID GI50; for CC50: read-out: MG_MID LC50
Breast cancer = experiment: cells; settings: Homo sapiens; for GI50: read-out: MG_MID GI50; for CC50: read-out: MG_MID LC50
[10] = test system: panel of 60 cancer cell lines; experiment: cells; settings: Homo sapiens, read-out: MG_MID GI50
NCI-H322M = experiment: NCI-60 SRB screen; settings: 48 h; for CC50: read-out: LC50, NCI-H322M, 48 h
KM12 = experiment: NCI-60 SRB screen; settings: KM12, 48 h
SNB-19 = experiment: NCI-60 SRB screen; settings: for GI50 / CC50 / TGI: SNB-19, 48 h; for CC50: read-out: LC50, SNB-19, 48 h
OVCAR-5 = experiment: NCI-60 SRB screen; settings: for GI50 / TGI: OVCAR-5, 48 h; for growth GP: OVCAR-5, 10 μM, 48 h
ACHN = experiment: NCI-60 SRB screen; settings: 48 h; for CC50: read-out: LC50, ACHN, 48 h; for growth GP: 10 μM
RXF 393 = experiment: NCI-60 SRB screen
MDA-MB-468 = experiment: NCI-60 SRB screen; settings: MDA-MB-468, 48 h; for CC50: read-out: LC50, MDA-MB-468, 48 h

CCCC(C(=O)O)N1C(=O)/C(=C/C=C/c2ccc([N+](=O)[O-])o2)SC1=S (stereo not shown) [4b, 2-((Z)-5-((E)-3-(5-Nitrofuran-2-yl)allylidene)-4-oxo-2-thioxothiazolidin-3-yl)pentanoic acid]
TGI (HCC-2998; HCC-2998, 48 h): 3330 nM
TGI (HCT-116): 3900 nM
TGI (SF-268 [1]; SF-268, 48 h): 4450 nM
TGI (SF-539; SF-539, 48 h): 4770 nM
TGI (SK-MEL-5 [2]; SK-MEL-5, 48 h): 2790 nM
TGI (UACC-257; UACC-257, 48 h): 4820 nM
TGI (OVCAR-3): 5390 nM
TGI (OVCAR-8 [3]): 4640 nM
TGI (T-47D): 5490 nM
MG_MID TGI (Leukemia [4]): 9430 nM
MG_MID TGI (Melanoma): 3410 nM
GI50 (CCRF-CEM): 2270 nM
GI50 (SF-268 [5]): 2040 nM
CC50 (SF-268 [5]): 9720 nM
GI50 (SK-MEL-5 [6]): 1470 nM
CC50 (SK-MEL-5 [6]): 5310 nM
GI50 (OVCAR-8 [7]): 1980 nM
CC50 (OVCAR-8 [7]): 13000 nM
GI50 (NCI/ADR-RES): 2030 nM
CC50 (NCI/ADR-RES; read-out: LC50, NCI/ADR-RES, 48 h): 21400 nM
GI50 (SK-OV-3): 5800 nM
CC50 (SK-OV-3): 47200 nM
GI50 (UO-31): 1630 nM
CC50 (UO-31): 6780 nM
GI50 (DU-145): 2420 nM
CC50 (DU-145): 22800 nM
GI50 (Leukemia [8]): 2360 nM
CC50 (Leukemia [8]): > 100000 nM
GI50 [9]: 2370 nM
CC50 [9]: 29300 nM
GI50 (Breast cancer): 1850 nM
CC50 (Breast cancer): 38300 nM
GI50 [10]: 2170 nM
TGI (NCI-H322M): 14200 nM
GI50 (NCI-H322M; Homo sapiens): 3720 nM
CC50 (NCI-H322M; Homo sapiens): 38100 nM
GI50 (KM12; Homo sapiens): 1380 nM
TGI (KM12): 2780 nM
GI50 (SNB-19; Homo sapiens): 2010 nM
CC50 (SNB-19; Homo sapiens): 8450 nM
TGI (SNB-19): 4120 nM
GI50 (OVCAR-5; Homo sapiens): 1890 nM
TGI (OVCAR-5): 4320 nM
TGI (ACHN): 3440 nM
GI50 (ACHN; Homo sapiens): 1720 nM
CC50 (ACHN; Homo sapiens): 6870 nM
GI50 (RXF 393; Homo sapiens, RXF 393, 48 h): 1890 nM
TGI (RXF 393; RXF 393, 48 h): 3400 nM
GI50 (MDA-MB-468; Homo sapiens): 1570 nM
CC50 (MDA-MB-468; Homo sapiens): 5920 nM
TGI (MDA-MB-468): 3050 nM

O=C(O)CCCN1C(=O)/C(=C/C=C/c2ccc([N+](=O)[O-])o2)SC1=S [13b, 4-((Z)-5-((E)-3-(5-Nitrofuran-2-yl)allylidene)-4-oxo-2-thioxothiazolidin-3-yl)butanoic acid]
growth GP (HCC-2998): -95.27%
GI50 (HCT-116): 170 nM
TGI (HCT-116): 1150 nM and 640 nM
TGI (SF-268 [1]; SF-268, 48 h): 2840 nM and 2890 nM
growth GP (SF-539): -98.91%
growth GP (SK-MEL-5 [2]; SK-MEL-5, 10 μM, 48 h): -98.67%
GI50 (SK-MEL-5 [2]; SK-MEL-5, 48 h): 1210 nM
TGI (SK-MEL-5 [2]; SK-MEL-5, 48 h): 1970 nM and 2680 nM
CC50 (SK-MEL-5 [2]; 48 h): 5960 nM
TGI (UACC-257; UACC-257, 48 h): 3150 nM and 1730 nM
CC50 (UACC-257): 4660 nM
GI50 (OVCAR-3): 390 nM
TGI (OVCAR-3): 2040 nM and 1360 nM
GI50 (OVCAR-8 [3]): 270 nM
TGI (OVCAR-8 [3]): 2250 nM and 1240 nM
GI50 (T-47D): 230 nM
MG_MID TGI (Leukemia [4]): 28300 nM
MG_MID TGI (Melanoma): 1460 nM
GI50 (CCRF-CEM): 190 nM
GI50 (SK-MEL-5 [6]): 610 nM
CC50 (SK-MEL-5 [6]): 4610 nM
GI50 (OVCAR-8 [7]): 460 nM
GI50 (NCI/ADR-RES): 290 nM
GI50 (SK-OV-3): 2730 nM
CC50 (SK-OV-3): 28100 nM
GI50 (DU-145): 1090 nM
CC50 (DU-145): 4920 nM
GI50 (Leukemia [8]): 9340 nM
CC50 (Leukemia [8]): 87000 nM
GI50 [9]: 1210 nM
CC50 [9]: 24600 nM
GI50 (Breast cancer): 530 nM
CC50 (Breast cancer): 36000 nM
GI50 [10]: 1610 nM
GI50 (NCI-H322M): 1970 nM
TGI (NCI-H322M): 8090 nM and 5500 nM
GI50 (NCI-H322M; Homo sapiens): 2520 nM
CC50 (NCI-H322M; Homo sapiens): 28300 nM
CC50 (SNB-19; Homo sapiens): 6050 nM
growth GP (SNB-19; SNB-19, 10 μM, 48 h): -96.10%
TGI (SNB-19): 3160 nM and 2100 nM
growth GP (OVCAR-5): -97.64%
TGI (OVCAR-5): 3320 nM and 2020 nM
growth GP (ACHN): -100.00%
TGI (ACHN): 2210 nM and 1350 nM
CC50 (ACHN; Homo sapiens): 4700 nM
growth GP (RXF 393; RXF 393, 10 μM, 48 h): -97.90%
GI50 (MDA-MB-468; Homo sapiens): 330 nM
GI50 (MDA-MB-468): 170 nM

O=C(O)CCCCCN1C(=O)/C(=C/C=C/c2ccc([N+](=O)[O-])o2)SC1=S [14b, 6-((Z)-5-((E)-3-(5-nitrofuran-2-yl)allylidene)-4-oxo-2-thioxothiazolidin-3-yl)hexanoic acid]
growth GP (HCC-2998): -95.72%
GI50 (HCC-2998; HCC-2998, 48 h): 1600 nM
TGI (HCC-2998; HCC-2998, 48 h): 3320 nM and 2980 nM
GI50 (HCT-116): 200 nM
GI50 (SF-268 [1]; SF-268, 48 h): 1320 nM
TGI (SF-268 [1]; SF-268, 48 h): 2710 nM and 3630 nM
CC50 (SF-268 [1]; human, 48 h): 9990 nM
growth GP (SF-539): -98.05%
TGI (SK-MEL-5 [2]; SK-MEL-5, 48 h): 1980 nM and 3140 nM
CC50 (SK-MEL-5 [2]; 48 h): 6380 nM
GI50 (UACC-257; UACC-257, 48 h): 1400 nM
TGI (UACC-257; UACC-257, 48 h): 3160 nM and 3080 nM
CC50 (UACC-257): 6810 nM
growth GP (OVCAR-3; OVCAR-3, 10 μM, 48 h): -95.33%
GI50 (OVCAR-3): 960 nM
TGI (OVCAR-3): 2350 nM and 2220 nM
GI50 (OVCAR-8 [3]): 300 nM
CC50 (OVCAR-8 [3]; human, 48 h): 9710 nM
MG_MID TGI (Leukemia [4]): 11350 nM
MG_MID TGI (Melanoma): 1820 nM
GI50 (CCRF-CEM): 180 nM
GI50 (SF-268 [5]): 1260 nM
CC50 (SF-268 [5]): 5820 nM
CC50 (SK-MEL-5 [6]): 4600 nM
GI50 (OVCAR-8 [7]): 570 nM
CC50 (OVCAR-8 [7]): 6430 nM
GI50 (NCI/ADR-RES): 450 nM
GI50 (SK-OV-3): 1710 nM
GI50 (UO-31): 520 nM
CC50 (UO-31): 4310 nM
GI50 (DU-145): 1520 nM
CC50 (DU-145): 5440 nM
GI50 (Leukemia [8]): 410 nM
CC50 (Leukemia [8]): 64900 nM
GI50 [9]: 1480 nM
CC50 [9]: 21800 nM
GI50 (Breast cancer): 650 nM
CC50 (Breast cancer): 36500 nM
GI50 [10]: 1100 nM
GI50 (NCI-H322M): 1820 nM
TGI (NCI-H322M): 3390 nM and 3550 nM
GI50 (NCI-H322M; Homo sapiens): 1680 nM
CC50 (NCI-H322M; Homo sapiens): 6840 nM
GI50 (KM12; Homo sapiens): 1420 nM
GI50 (KM12): 1190 nM
TGI (KM12): 2830 nM and 2670 nM
GI50 (SNB-19; Homo sapiens): 1760 nM
CC50 (SNB-19; Homo sapiens): 7430 nM
GI50 (SNB-19): 1450 nM
TGI (SNB-19): 3620 nM and 3110 nM
GI50 (OVCAR-5; Homo sapiens): 1850 nM
growth GP (OVCAR-5): -96.01%
GI50 (OVCAR-5): 1560 nM
TGI (OVCAR-5): 3310 nM and 2970 nM
growth GP (ACHN): -99.76%
GI50 (ACHN): 1210 nM
TGI (ACHN): 2820 nM and 2460 nM
GI50 (ACHN; Homo sapiens): 1500 nM
CC50 (ACHN; Homo sapiens): 5310 nM
CC50 (MDA-MB-468; Homo sapiens): 5270 nM
